The source of these data is patent publication US9732075B2, “Benzimidazole-proline derivatives” (IDORSIA PHARMACEUTICALS LTD, priority 2012, dated 2017).

Assay [1] concerns the target human orexin-1 receptor (Homo sapiens (Human), UniProt O43613). The experiment in a line: In vitro assay: intracellular calcium measurements (FLIPR), antagonistic activity. It counts as cell-based. Particulars: CHO cells expressing human orexin-1 receptor, orexin-A agonist, geometric mean, read-out: IC50 Ox1. In a few lines: (§1)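 In this FLIPR calcium assay, antagonists were given 120 min on CHO cells with human OX1 or OX2 receptor before orexin-A (3 nM final) was added. Peak fluorescence was measured at 1 s intervals against the uninhibited agonist peak, and IC50s were averaged geometrically.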
In general terms: A change in cytosolic calcium serves as a functional read-out for many receptors and channels.

Assay [2] deals with human orexin-2 receptor (Homo sapiens (Human), UniProt O43614). Described as above. Type of assay: cell-based. Conditions: CHO cells expressing human orexin-2 receptor, orexin-A agonist, geometric mean, read-out: IC50 Ox2. In a few lines: as §1
human orexin-2 receptor, sequence (O43614 whole entry): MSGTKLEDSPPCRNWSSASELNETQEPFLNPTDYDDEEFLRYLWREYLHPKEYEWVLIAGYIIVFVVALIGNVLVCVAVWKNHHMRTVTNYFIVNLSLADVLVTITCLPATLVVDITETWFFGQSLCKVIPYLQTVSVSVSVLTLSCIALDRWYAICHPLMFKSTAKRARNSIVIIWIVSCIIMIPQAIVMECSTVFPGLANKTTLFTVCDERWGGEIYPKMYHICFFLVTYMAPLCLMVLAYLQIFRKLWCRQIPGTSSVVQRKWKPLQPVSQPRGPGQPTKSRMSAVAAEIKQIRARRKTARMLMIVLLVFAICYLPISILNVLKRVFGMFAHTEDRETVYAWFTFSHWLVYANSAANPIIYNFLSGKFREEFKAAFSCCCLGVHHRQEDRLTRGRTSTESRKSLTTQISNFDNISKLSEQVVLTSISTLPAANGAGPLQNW

human orexin-1 receptor, sequence (O43613 whole entry): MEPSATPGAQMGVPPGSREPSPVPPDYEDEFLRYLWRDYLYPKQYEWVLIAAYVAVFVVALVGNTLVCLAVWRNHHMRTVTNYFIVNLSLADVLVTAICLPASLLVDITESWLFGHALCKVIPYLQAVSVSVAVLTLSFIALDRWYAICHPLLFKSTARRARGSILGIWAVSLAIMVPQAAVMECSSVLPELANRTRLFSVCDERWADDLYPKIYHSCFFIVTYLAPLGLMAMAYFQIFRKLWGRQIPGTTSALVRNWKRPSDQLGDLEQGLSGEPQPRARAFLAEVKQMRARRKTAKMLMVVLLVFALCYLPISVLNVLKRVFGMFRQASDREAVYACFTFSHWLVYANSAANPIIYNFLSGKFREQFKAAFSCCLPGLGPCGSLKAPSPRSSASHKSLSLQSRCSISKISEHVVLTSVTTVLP

For orientation: IC50 means the midpoint of a concentration-inhibition curve. Regarding `C=C1C[C@@H](c2nc3c(Cl)cccc3[nH]2)N(C(=O)c2nc(C)sc2-c2ccc(C)c(C)c2)C1` [Ex. 6.51], the results for the IC50 in assay [1] and in assay [2] were 8 nM and 3 nM, respectively.
As for `C=C1C[C@@H](c2nc3cc(SC)ccc3[nH]2)N(C(=O)c2nc(C)sc2-c2ccc(C)c(C)c2)C1` [Ex. 6.52], the results for the IC50 in assay [1] and in assay [2] were 8 nM and 2 nM, respectively.
Take `C=C1C[C@@H](c2nc3c(C)cccc3[nH]2)N(C(=O)c2nc(C)sc2-c2ccc(C)c(C)c2)C1` [Ex. 6.53]: the IC50 was 4 nM in assay [1] and 1 nM in assay [2].
For the compound `C=C1C[C@@H](c2nc3c(C)c(Cl)ccc3[nH]2)N(C(=O)c2nc(C)sc2-c2ccc(C)c(C)c2)C1` [Ex. 6.54], the IC50 in assay [1] was determined as 3 nM; in assay [2] it was 1 nM.
As for `C=C1C[C@@H](c2nc3cc(Cl)c(C)cc3[nH]2)N(C(=O)c2nc(C)sc2-c2ccc(C)c(C)c2)C1` [Ex. 6.55], the IC50 stood at 5 nM in assay [1] and 1 nM in assay [2].
In the same order, the values of `C=C1C[C@@H](c2nc3cc(C)c(C)cc3[nH]2)N(C(=O)c2nc(C)sc2-c2ccc(C)c(C)c2)C1` [Ex. 6.56] are 6 nM and 1 nM.
On to `C=C1C[C@@H](c2nc3cc(C(C)(C)C)ccc3[nH]2)N(C(=O)c2nc(C)sc2-c2ccc(C)c(C)c2)C1` [Ex. 6.57], for which the IC50 in assay [1] and in assay [2] was 11 nM throughout.
Regarding `C=C1C[C@@H](c2nc3c(C)cc(C)cc3[nH]2)N(C(=O)c2nc(C)sc2-c2ccc(C)c(C)c2)C1` [Ex. 6.58], the IC50 in assay [1] was determined as 4 nM; in assay [2], 1 nM.
For the compound `C=C1C[C@@H](c2nc3cccc(SC)c3[nH]2)N(C(=O)c2cc(C)ccc2-n2nccn2)C1` [Ex. 6.59], the IC50 in assay [1] was 76 nM; in assay [2], 10 nM.
Regarding `C=C1C[C@@H](c2nc3cc(SC)ccc3[nH]2)N(C(=O)c2cc(C)ccc2-n2nccn2)C1` [Ex. 6.60], the IC50 in assay [1] stood at 83 nM; in assay [2], 3 nM.
For the compound `C=C1C[C@@H](c2nc3cc(C)c(C)cc3[nH]2)N(C(=O)c2cc(C)ccc2-n2nccn2)C1` [Ex. 6.61], the IC50 was determined as 41 nM in assay [1] and 4 nM in assay [2].
Consider `C=C1C[C@@H](c2nc3c(C)cc(C)cc3[nH]2)N(C(=O)c2cc(C)ccc2-n2nccn2)C1` [Ex. 6.62], for which the IC50 in assay [1] came out at 44 nM; in assay [2], 4 nM.
As to `C=C1C[C@@H](c2nc3c(C)c(C)ccc3[nH]2)N(C(=O)c2cc(C)ccc2-n2nccn2)C1` [Ex. 6.63], the IC50 was 88 nM in assay [1] and 3 nM in assay [2].
As to `C=C1C[C@@H](c2nc3c(Br)cccc3[nH]2)N(C(=O)c2cc(C)ccc2-n2nccn2)C1` [Ex. 6.64], the IC50 in assay [1] was 142 nM; in assay [2], 33 nM.
Take `C=C1C[C@@H](c2nc3cc(Cl)c(C)cc3[nH]2)N(C(=O)c2cc(C)ccc2-n2nccn2)C1` [Ex. 6.65]: the IC50 in assay [1] came out at 34 nM; in assay [2], 3 nM.
Take `C=C1C[C@@H](c2nc3cc(C(C)(C)C)ccc3[nH]2)N(C(=O)c2cc(C)ccc2-n2nccn2)C1` [Ex. 6.66]: the IC50 in assay [1] was 57 nM; in assay [2], 2 nM.
In the same order, the values of `C=C1C[C@@H](c2nc3cc(Cl)c(C(F)(F)F)cc3[nH]2)N(C(=O)c2cc(C)ccc2-n2nccn2)C1` [Ex. 6.67] are 9 nM and 5 nM.
In the same order, the values of `C=C1C[C@@H](c2nc3c(OC)ccc(OC)c3[nH]2)N(C(=O)c2cc(C)ccc2-n2nccn2)C1` [Ex. 6.68] are 767 nM and 62 nM.
Take `C=C1C[C@@H](c2nc3cccc(Cl)c3[nH]2)N(C(=O)c2cc(C)ccc2-n2nccn2)C1` [Ex. 6.69]: the IC50 in assay [1] was determined as 389 nM; in assay [2], 51 nM.
Consider `C=C1CC(c2nc3cc(SC)ccc3[nH]2)N(C(=O)c2cc(C)sc2-c2ccc(C)c(C)c2)C1` (stereo not shown) [Ex. 6.73], for which the values for the IC50 in assay [1] and in assay [2] were 10 nM and 4 nM, respectively.
Take `C=C1CC(c2nc3c(C)c(Cl)ccc3[nH]2)N(C(=O)c2cc(C)sc2-c2ccc(C)c(C)c2)C1` (stereo not shown) [Ex. 6.74]: the values for the IC50 in assay [1] and in assay [2] were 4 nM and 11 nM, respectively.
As for `C=C1CC(c2nc3c(C)cc(C)cc3[nH]2)N(C(=O)c2cc(C)sc2-c2ccc(C)c(C)c2)C1` (stereo not shown) [Ex. 6.76], the IC50 in assay [1] and in assay [2] was 4 nM in each case.
As to `C=C1CC(c2nc3c(C)c(C)ccc3[nH]2)N(C(=O)c2cc(C)sc2-c2ccc(C)c(C)c2)C1` (stereo not shown) [Ex. 6.77], the values for the IC50 in assay [1] and in assay [2] were 3 nM and 9 nM, respectively.
As for `C=C1CC(c2nc3c(Br)cccc3[nH]2)N(C(=O)c2cc(C)sc2-c2ccc(C)c(C)c2)C1` (stereo not shown) [Ex. 6.78], the IC50 in assay [1] came out at 5 nM; in assay [2] it was 12 nM.
On to `C=C1CC(c2nc3c(C)cccc3[nH]2)N(C(=O)c2cc(C)sc2-c2ccc(C)c(C)c2)C1` (stereo not shown) [Ex. 6.79], for which the IC50 in assay [1] is 2 nM; in assay [2] it was 4 nM.
With `C=C1CC(c2nc3cc(C(C)(C)C)ccc3[nH]2)N(C(=O)c2cc(C)sc2-c2ccc(C)c(C)c2)C1` (stereo not shown) [Ex. 6.81], the results for the IC50 in assay [1] and in assay [2] were 19 nM and 23 nM, respectively.
Turning to `C=C1CC(c2nc3cc(Cl)c(C(F)(F)F)cc3[nH]2)N(C(=O)c2cc(C)sc2-c2ccc(C)c(C)c2)C1` (stereo not shown) [Ex. 6.82], the 50% inhibitory concentration (IC50) in assay [1] came to 36 nM; in assay [2] it was 208 nM.
In the same order, the values of `C=C1CC(c2nc3cccc(Cl)c3[nH]2)N(C(=O)c2cc(C)sc2-c2ccc(C)c(C)c2)C1` (stereo not shown) [Ex. 6.84] are 8 nM and 14 nM.
Take `C=C1CC(c2nc3cc4ccccc4cc3[nH]2)N(C(=O)c2cc(C)sc2-c2ccc(C)c(C)c2)C1` (stereo not shown) [Ex. 6.85]: the IC50 in assay [1] is 108 nM; in assay [2] it was 42 nM.
In the same order, the values of `C=C1CC(c2nc3cc(SC)ccc3[nH]2)N(C(=O)c2nc(C3CC3)sc2-c2cccc(C)c2)C1` (stereo not shown) [Ex. 6.88] are 20 nM and 15 nM.
Turning to `C=C1CC(c2nc3c(C)c(Cl)ccc3[nH]2)N(C(=O)c2nc(C3CC3)sc2-c2cccc(C)c2)C1` (stereo not shown) [Ex. 6.89], the IC50 in assay [1] and in assay [2] was 2 nM throughout.
As for `C=C1CC(c2nc3cc(C)c(C)cc3[nH]2)N(C(=O)c2nc(C3CC3)sc2-c2cccc(C)c2)C1` (stereo not shown) [Ex. 6.90], the values for the IC50 in assay [1] and in assay [2] were 6 nM and 1 nM, respectively.
As for `C=C1CC(c2nc3c(C)cc(C)cc3[nH]2)N(C(=O)c2nc(C3CC3)sc2-c2cccc(C)c2)C1` (stereo not shown) [Ex. 6.91], the IC50 is 2 nM in assay [1] and 1 nM in assay [2].
With `C=C1CC(c2nc3c(Br)cccc3[nH]2)N(C(=O)c2nc(C3CC3)sc2-c2cccc(C)c2)C1` (stereo not shown) [Ex. 6.93], the IC50 amounted to 0.9 nM in assay [1] and 3 nM in assay [2].
As for `C=C1CC(c2nc3c(C)cccc3[nH]2)N(C(=O)c2nc(C3CC3)sc2-c2cccc(C)c2)C1` (stereo not shown) [Ex. 6.94], the values for the IC50 in assay [1] and in assay [2] were 2 nM and 1 nM, respectively.
Take `C=C1CC(c2nc3cc(C(C)(C)C)ccc3[nH]2)N(C(=O)c2nc(C3CC3)sc2-c2cccc(C)c2)C1` (stereo not shown) [Ex. 6.96]: the IC50 in assay [1] worked out at 234 nM; in assay [2], 68 nM.
As for `C=C1CC(c2nc3c(OC)ccc(OC)c3[nH]2)N(C(=O)c2nc(C3CC3)sc2-c2cccc(C)c2)C1` (stereo not shown) [Ex. 6.98], the IC50 was determined as 4 nM in assay [1] and 3 nM in assay [2].
Take `C=C1C[C@@H](c2nc3cccc(C)c3[nH]2)N(C(=O)c2nc(C)sc2-c2ccc(Br)cc2)C1` [Ex. 6.100]: the results for the IC50 in assay [1] and in assay [2] were 55 nM and 4 nM, respectively.
